Measured values as given in PubChem BioAssay AID588645 (Sanford-Burnham Center for Chemical Genomics, 2011).
Calls of active or inactive are those of the source. No rule for the calls is given here.

Target: Intestinal-type alkaline phosphatase (Homo sapiens) (UniProt P09923)
Experiment: human IAP enzyme inhibitors, SAR follow-up, mouse IAP inhibitor project, biochemical, set 2 (AID 588645)
Conditions: human intestinal alkaline phosphatase enzymatic inhibition assay

Intestinal-type alkaline phosphatase (Homo sapiens), sequence (P09923 whole entry, looked up): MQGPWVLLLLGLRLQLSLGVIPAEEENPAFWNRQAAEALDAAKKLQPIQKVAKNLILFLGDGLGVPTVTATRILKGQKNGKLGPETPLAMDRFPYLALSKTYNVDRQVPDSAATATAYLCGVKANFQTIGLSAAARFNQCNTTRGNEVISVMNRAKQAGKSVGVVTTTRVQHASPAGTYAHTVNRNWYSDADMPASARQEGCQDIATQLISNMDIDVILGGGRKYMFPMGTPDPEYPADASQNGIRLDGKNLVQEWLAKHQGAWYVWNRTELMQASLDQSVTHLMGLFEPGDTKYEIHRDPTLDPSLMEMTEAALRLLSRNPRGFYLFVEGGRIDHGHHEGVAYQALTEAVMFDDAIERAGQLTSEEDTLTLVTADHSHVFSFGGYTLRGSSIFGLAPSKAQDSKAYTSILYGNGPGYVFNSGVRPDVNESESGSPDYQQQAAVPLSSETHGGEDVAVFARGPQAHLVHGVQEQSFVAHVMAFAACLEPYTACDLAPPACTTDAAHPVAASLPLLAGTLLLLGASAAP

N#Cc1cccc(NS(=O)(=O)c2ccc3[nH]c(=O)oc3c2)c1
IC50: > 100 µM (inactive)

O=C(N/N=C/c1cccc(Cl)c1Cl)c1cc(O)c(O)c(O)c1
IC50: 64.3 µM

O=C(CCS(=O)(=O)Nc1ccc2[nH]c(=O)oc2c1)NCc1cccc(F)c1
IC50: > 100 µM (inactive)

O=C(N/N=C/c1c(Cl)cccc1Cl)c1cc(O)c(O)c(O)c1
IC50: > 100 µM (inactive)

CCOc1cc(C(=O)N/N=C/c2ccccc2F)cc(OCC)c1OCC
IC50: > 100 µM (inactive)

CCOc1cc(C(=O)N/N=C/c2c(F)cccc2Cl)cc(OCC)c1OCC
IC50: > 100 µM (inactive)

O=C(CCCNS(=O)(=O)c1ccc2[nH]c(=O)oc2c1)NCc1cccc(F)c1
IC50: > 100 µM (inactive)

Cc1ccc(NC(=O)CCNS(=O)(=O)c2ccc3c(c2)oc(=O)n3C)cc1
IC50: > 100 µM (inactive)

CCOc1ccc(CNC(=O)C2CCCN(S(=O)(=O)c3ccc4[nH]c(=O)oc4c3)C2)cc1OC (stereo not drawn)
IC50: > 100 µM (inactive)

O=C(N/N=C/c1ccccc1F)c1ccc(O)cc1O
IC50: > 100 µM (inactive)

CC(C)c1ccc(NC(=O)CCNS(=O)(=O)c2ccc3c(c2)oc(=O)n3C)cc1
IC50: > 100 µM (inactive)

O=C(CCNS(=O)(=O)c1ccc2[nH]c(=O)oc2c1)NCc1ccccc1
IC50: > 100 µM (inactive)

O=C(N/N=C/c1ccc(F)c(Br)c1)c1cc(O)c(O)c(O)c1
IC50: > 100 µM (inactive)

Cc1ccc(NC(=O)CCNS(=O)(=O)c2ccc3[nH]c(=O)oc3c2)cc1C
IC50: > 100 µM (inactive)

O=C(N/N=C/c1ccccc1F)c1ccccc1OCc1ccccc1
IC50: > 100 µM (inactive)

Cc1ccc(C)c(NC(=O)CNS(=O)(=O)c2ccc3[nH]c(=O)oc3c2)c1
IC50: > 100 µM (inactive)

O=C(CCNS(=O)(=O)c1ccc2[nH]c(=O)oc2c1)NCc1ccc2c(c1)OCO2
IC50: > 100 µM (inactive)

O=C(N/N=C/c1cc(Br)ccc1F)c1ccc(O)cc1
IC50: > 100 µM (inactive)

COc1ccc(CNC(=O)CNS(=O)(=O)c2ccc3[nH]c(=O)oc3c2)cc1
IC50: > 100 µM (inactive)

O=C(N/N=C/c1ccc(Br)cc1F)c1cc(O)ccc1O
IC50: > 100 µM (inactive)

O=C(N/N=C/c1ccccc1Cl)c1cc(O)c(O)c(O)c1
IC50: > 100 µM (inactive)

O=C(NCc1ccc(F)cc1)C1CCCN(S(=O)(=O)c2ccc3[nH]c(=O)oc3c2)C1 (stereo not drawn)
IC50: > 100 µM (inactive)

COc1ccc(CNC(=O)CNS(=O)(=O)c2ccc3[nH]c(=O)oc3c2)c(OC)c1
IC50: > 100 µM (inactive)

COc1ccc(CNC(=O)C2CCCN(S(=O)(=O)c3ccc4[nH]c(=O)oc4c3)C2)cc1 (stereo not drawn)
IC50: > 100 µM (inactive)

Cc1ccc(NC(=O)CCNS(=O)(=O)c2ccc3c(c2)oc(=O)n3C)cc1C
IC50: > 100 µM (inactive)

O=C(CCNS(=O)(=O)c1ccc2c(c1)CCC2)NCCc1ccc2c(c1)OCO2
IC50: > 100 µM (inactive)

Cc1ccc(CNC(=O)CCNS(=O)(=O)c2ccc3[nH]c(=O)oc3c2)cc1
IC50: > 100 µM (inactive)

COc1ccc(CNC(=O)CCNS(=O)(=O)c2ccc3c(c2)CCC3)c(OC)c1
IC50: > 100 µM (inactive)
